Patent US20180106782A1, “HIGH THROUGHPUT CARDIOTOXICITY SCREENING PLATFORM” (The Board of Trustees of the Leland Stanford Junior …, priority 2016, published 2018)

Experiments:
μpatterned hiPSC-CMs [1] = assay: cell movement from brightfield videos of beating μpatterned hiPSC-CMs (cross-correlation within ROI); type: cell-based, human; conditions: for aδ (temporal asynchronicity) / d (displacement) / VR (peak velocity of relaxation) / VC (peak velocity of contraction) / aθ (spatial asynchronicity): brightfield, single cell
Description: We imaged the movement of beating hiPSC-CMs and the displacement of fluorescent microbeads embedded in polyacrylamide substrates with a Zeiss Axiovert 200M inverted microscope equipped with a Zeiss Axiocam MRm CCD camera. This microscope also contained an environmental chamber (PeCon) to set temperature at 37° C. Unless otherwise noted, we acquired microscopy videos while electrically pacing hiPSC-CMs with 10 ms-wide bipolar pulses of electric-field stimulation at 10-15 V with a frequency of 1 Hz (Myopacer, lonOptix). To induce contractile changes in hiPSC-CMs, we added drugs known to affect CM contractile machinery to the culture medium. We analyzed the mechanical output of cells after adding drugs. […] We exposed single cells to concentrations of 0.1 μM and then 1 μM of isoproterenol (Sigma, Saint Louis, Mo.) to test how the contractile activity of each cell varied after adding different amounts of isoproterenol to the medium. Omecamtiv mecarbil (Adooq Bioscience, Irvine, Calif.) was also added to the cell culture medium at 10 nM or 0.1 μM to detect different variations in the contractile response of hiPSC-CMs after adding one of these concentrations. We acquired videos of single beating hiPSC-CMs imaged with differential interference contrast microscopy at frame rates higher than 30 fps for a time between 4 and 10 s. We used MATLAB (R2014b version, Mathworks) to convert pixels of each frame to microns. Zeiss files (.czi) contained information on the pixel dimensions and were imported into MATLAB using the Bioformats package. ([…] 2010) We also confirmed the software calibration with calibration slides (Electron Microscopy Sciences). For each video of a beating single cell, we selected a region of interest (ROI) around the borders of the cell and analyzed average displacements within this ROI (FIG. 1B). For this purpose, we selected a baseline frame, within all the frames of the video, which represented the relaxed state of the cell and calculated average displacement within the ROI for the remaining frames relative to the baseline frame. As noted bellow, this procedure was automated. We then calculated displacements from microscopy videos with cross-correlation approaches: digital image correlation (DIC) and particle image velocimetry (PIV) approaches. […] Cross-correlation is done between sub-blocks of the image and the highest correlation indicates the maximum likelihood that blocks match. We tested the following cross-correlation algorithms: PIVIab, ImageJ PIV (Tseng 2012) and Ncorr. PIVIab and Ncorr were written in MATLAB, while ImageJ PIV is a plugin for ImageJ (NIH). Ncorr generally performs better, but uses more computational time. (Blaber 2015) We measured two parameters of asynchronicity of contractile movement within the ROI: spatial asynchronicity (aθ) of contractile movement and temporal asynchronicity (aδ) of contractile movement. Spatial synchronicity occurs when the different regions of the cell move along the same directions and temporal synchronicity occurs when all the regions of the cell move at the same time. To calculate aθ, we first computed the direction of movement (θ) for every movement vector of different regions i inside the ROI (FIG. 1B) at each frame as defined by For the calculation of aδ, we first determined the mean offset time b between the peaks of the displacement curves of different regions i (dcurrent) in the ROI and the peaks of the mean displacement ([…] occurs within the same ROI by mean, cross-correlation between the two curves, then refined this offset result using main peaks only (FIG. 8A): […]

μpatterned hiPSC-CMs [2] = assay: movement of LifeAct-labeled myofibrils in beating μpatterned hiPSC-CMs (cross-correlation, Ncorr); type: cell-based, human; conditions: 1 μM and 10 nM omecamtiv mecarbil (FIG. 11)
CMs = conditions: 0.1 μM isoproterenol (Butler 2015); cited from earlier work
hiPSC-CMs = conditions: 1 μM isoproterenol (Yokoo 2009); cited from earlier work

COC(=O)N1CCN(Cc2cccc(NC(=O)Nc3ccc(C)nc3)c2F)CC1 [omecamtiv mecarbil]
acute dmax from brightfield videos (μpatterned hiPSC-CMs [1]; 0.1 μM omecamtiv mecarbil, single cell (FIG. 6H)): considerable acute increase | absolute values of VC and VR from brightfield videos, acute (μpatterned hiPSC-CMs [1]; 0.1 μM omecamtiv mecarbil, single cell (FIG. 6I)): increase | aδ (temporal asynchronicity) (μpatterned hiPSC-CMs [1]; OM 0.1 μM (FIG. 6), row 'acute', no OM: 0.03): 0.21 s | d (displacement) (μpatterned hiPSC-CMs [1]; OM 0.1 μM (FIG. 6), row 'acute', no OM: 0.79): 0.18 μm | VR (peak velocity of relaxation) (μpatterned hiPSC-CMs [1]; OM 0.1 μM (FIG. 6), row 'acute', no OM: 2.87): 0.54 μm/s | VC (peak velocity of contraction) (μpatterned hiPSC-CMs [1]; OM 0.1 μM (FIG. 6), row 'acute', no OM: 3.53): 0.71 μm/s | aθ (spatial asynchronicity) (μpatterned hiPSC-CMs [1]; OM 0.1 μM (FIG. 6), row 'acute', no OM: 44.5): 70.1 ° | aδ (temporal asynchronicity) (μpatterned hiPSC-CMs [1]; OM 0.1 μM (FIG. 6), row 'chronic', no OM: 0.03): 0.04 s | d (displacement) (μpatterned hiPSC-CMs [1]; OM 0.1 μM (FIG. 6), row 'chronic', no OM: 0.79): 1.05 μm | VR (peak velocity of relaxation) (μpatterned hiPSC-CMs [1]; OM 0.1 μM (FIG. 6), row 'chronic', no OM: 2.87): 3.42 μm/s | VC (peak velocity of contraction) (μpatterned hiPSC-CMs [1]; OM 0.1 μM (FIG. 6), row 'chronic', no OM: 3.53): 4.35 μm/s | aθ (spatial asynchronicity) (μpatterned hiPSC-CMs [1]; OM 0.1 μM (FIG. 6), row 'chronic', no OM: 44.5): 68.8 ° | myofibril damage at other concentrations (μpatterned hiPSC-CMs [2]): Such level of damage was also observed

CC(C)NCC(O)c1ccc(O)c(O)c1 (stereo not drawn) [isoproterenol]
aδ (temporal asynchronicity) (μpatterned hiPSC-CMs [1]; ISO 0.1 (μM per FIG. 4), no ISO: 0.01): 0.02 s | d (displacement) (μpatterned hiPSC-CMs [1]; ISO 0.1 (μM per FIG. 4), no ISO: 1.09): 1.3 μm | VR (peak velocity of relaxation) (μpatterned hiPSC-CMs [1]; ISO 0.1 (μM per FIG. 4), no ISO: 3.78): 5.37 μm/s | VC (peak velocity of contraction) (μpatterned hiPSC-CMs [1]; ISO 0.1 (μM per FIG. 4), no ISO: 6.85): 9.3 μm/s | aθ (spatial asynchronicity) (μpatterned hiPSC-CMs [1]; ISO 0.1 (μM per FIG. 4), no ISO: 31.4): 75.5 ° | aδ (temporal asynchronicity) (μpatterned hiPSC-CMs [1]; ISO 1 (μM per FIG. 4), no ISO: 0.01): 0.02 s | d (displacement) (μpatterned hiPSC-CMs [1]; ISO 1 (μM per FIG. 4), no ISO: 1.09): 0.68 μm | VR (peak velocity of relaxation) (μpatterned hiPSC-CMs [1]; ISO 1 (μM per FIG. 4), no ISO: 3.78): 3.65 μm/s | VC (peak velocity of contraction) (μpatterned hiPSC-CMs [1]; ISO 1 (μM per FIG. 4), no ISO: 6.85): 5.34 μm/s | aθ (spatial asynchronicity) (μpatterned hiPSC-CMs [1]; ISO 1 (μM per FIG. 4), no ISO: 31.4): 25.3 ° | variations of d, VC, VR, t̂ from brightfield videos between isoproterenol concentrations (μpatterned hiPSC-CMs [1]; six cells, 0.1 and 1 μM isoproterenol (FIG. 9)): did not yield differences in variations of parameters with statistical significance | inotropic and chronotropic response in CMs (CMs): positive inotropic and positive chronotropic responses | beat rate (hiPSC-CMs): increase | mechanical output (hiPSC-CMs): decrease
